Reference: PubChem BioAssay (NCI)
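96-well plates; 48 h exposure; 5 concentrations. Endpoints by linear interpolation between flanking doses. Not reached: highest tested concentration assigned. Abbreviation: GI50, concentration required for 50% inhibition of growth. TGI: concentration producing complete growth inhibition.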

How the values were obtained:
Experiment in all cases: NCI-60 cell line screen, 48 h
HS 578T breast = test system: HS 578T breast
T-47D breast = test system: T-47D breast
HCT-116 colon = test system: HCT-116 colon
DU-145 prostate = test system: DU-145 prostate
K-562 leukemia = test system: K-562 leukemia
UACC-257 melanoma = test system: UACC-257 melanoma
SK-MEL-2 melanoma = test system: SK-MEL-2 melanoma
M14 melanoma = test system: M14 melanoma
HOP-92 NSCLC = test system: HOP-92 NSCLC
NCI-H23 lung = test system: NCI-H23 lung
HCT-15 colon = test system: HCT-15 colon
HCC-2998 colon = test system: HCC-2998 colon
SK-MEL-28 melanoma = test system: SK-MEL-28 melanoma
TK-10 renal = test system: TK-10 renal
KM12 colon = test system: KM12 colon
SR leukemia = test system: SR leukemia
MDA-MB-231 breast = test system: MDA-MB-231 breast
786-0 renal = test system: 786-0 renal
HOP-62 NSCLC = test system: HOP-62 NSCLC
SN12C renal = test system: SN12C renal
CAKI-1 renal = test system: CAKI-1 renal
MOLT-4 leukemia = test system: MOLT-4 leukemia
NCI-H522 lung = test system: NCI-H522 lung
OVCAR-5 ovarian = test system: OVCAR-5 ovarian
SF-268 CNS = test system: SF-268 CNS
SF-295 CNS = test system: SF-295 CNS
BT-549 breast = test system: BT-549 breast
HT29 colon = test system: HT29 colon
UACC-62 melanoma = test system: UACC-62 melanoma
UO-31 renal = test system: UO-31 renal
MCF7 breast = test system: MCF7 breast
RXF 393 renal = test system: RXF 393 renal
A549 NSCLC = test system: A549 NSCLC
SF-539 CNS = test system: SF-539 CNS
A498 renal = test system: A498 renal
HL-60(TB) leukemia = test system: HL-60(TB) leukemia
SNB-19 CNS = test system: SNB-19 CNS
OVCAR-8 ovarian = test system: OVCAR-8 ovarian
SW-620 colon = test system: SW-620 colon
MALME-3M melanoma = test system: MALME-3M melanoma
LOX IMVI melanoma = test system: LOX IMVI melanoma
IGROV1 ovarian = test system: IGROV1 ovarian
ACHN renal = test system: ACHN renal
U251 CNS = test system: U251 CNS
OVCAR-4 ovarian = test system: OVCAR-4 ovarian
EKVX NSCLC = test system: EKVX NSCLC
OVCAR-3 ovarian = test system: OVCAR-3 ovarian
RPMI-8226 leukemia = test system: RPMI-8226 leukemia
SNB-75 CNS = test system: SNB-75 CNS
CCRF-CEM leukemia = test system: CCRF-CEM leukemia
MDA-MB-435 = test system: MDA-MB-435
NCI-H460 lung = test system: NCI-H460 lung
COLO 205 colon = test system: COLO 205 colon
PC-3 prostate = test system: PC-3 prostate
SK-MEL-5 melanoma = test system: SK-MEL-5 melanoma
SK-OV-3 ovarian = test system: SK-OV-3 ovarian
NCI/ADR-RES ovarian = test system: NCI/ADR-RES ovarian

In the case of CC(=O)OC[C@]12CC[C@@H](C(=O)CBr)[C@@H]1[C@H]1CC[C@@H]3[C@@]4(C)CCCNC(C)(C)[C@@H]4CC[C@@]3(C)[C@]1(C)CC2, the GI50 (HS 578T breast) is reported as 15.9 µM, the TGI (HS 578T breast) is reported as over 100 µM and the GI50 (T-47D breast) is reported as 2.31 µM. For the same compound, the TGI (T-47D breast) was 6.92 µM, the GI50 (HCT-116 colon) was 1.84 µM and the TGI (HCT-116 colon) was 3.61 µM. It also gave a GI50 (DU-145 prostate) of 4.1 µM, a TGI (DU-145 prostate) of 14.2 µM and a GI50 (K-562 leukemia) of 2.61 µM. It also gave a TGI (K-562 leukemia) of 8.33 µM, a GI50 (UACC-257 melanoma) of 9.2 µM and a TGI (UACC-257 melanoma) of 23.1 µM. It also gave a GI50 (SK-MEL-2 melanoma) of 6.03 µM, a TGI (SK-MEL-2 melanoma) of 20.3 µM and a GI50 (M14 melanoma) of 2.38 µM. It also gave a TGI (M14 melanoma) of 6.66 µM, a GI50 (HOP-92 NSCLC) of 1.6 µM and a TGI (HOP-92 NSCLC) of 3.7 µM. For the same compound, the GI50 (NCI-H23 lung) was 7.01 µM, the TGI (NCI-H23 lung) was 23.5 µM and the GI50 (HCT-15 colon) was 1.65 µM. It also gave a TGI (HCT-15 colon) of 3.52 µM, a GI50 (HCC-2998 colon) of 11.5 µM and a TGI (HCC-2998 colon) of 26.1 µM. For the same compound, the GI50 (SK-MEL-28 melanoma) was 2.23 µM, the TGI (SK-MEL-28 melanoma) was 4.23 µM and the GI50 (TK-10 renal) was 2.93 µM. It also gave a TGI (TK-10 renal) of 11.6 µM, a GI50 (KM12 colon) of 11.8 µM and a TGI (KM12 colon) of 27.3 µM. The GI50 (SR leukemia) was 2 µM, the TGI (SR leukemia) was 5.71 µM and the GI50 (MDA-MB-231 breast) was 3.72 µM. The TGI (MDA-MB-231 breast) was 17.9 µM, the GI50 (786-0 renal) was 1.65 µM and the TGI (786-0 renal) was 3.27 µM. It also gave a GI50 (HOP-62 NSCLC) of 14.3 µM, a TGI (HOP-62 NSCLC) of 28.2 µM and a GI50 (SN12C renal) of 2.28 µM. The TGI (SN12C renal) was 5.25 µM, the GI50 (CAKI-1 renal) was 1.81 µM and the TGI (CAKI-1 renal) was 4.13 µM. For the same compound, the GI50 (MOLT-4 leukemia) was 2.03 µM, the TGI (MOLT-4 leukemia) was 5.43 µM and the GI50 (NCI-H522 lung) was 2.06 µM. The TGI (NCI-H522 lung) was 4.6 µM, the GI50 (OVCAR-5 ovarian) was 13.5 µM and the TGI (OVCAR-5 ovarian) was 26.6 µM. The GI50 (SF-268 CNS) was 5.98 µM, the TGI (SF-268 CNS) was 23.9 µM and the GI50 (SF-295 CNS) was 14.6 µM. The TGI (SF-295 CNS) was 28.2 µM, the GI50 (BT-549 breast) was 2.2 µM and the TGI (BT-549 breast) was 5.52 µM. The GI50 (HT29 colon) was 3.07 µM, the TGI (HT29 colon) was 10.5 µM and the GI50 (UACC-62 melanoma) was 2.11 µM. The TGI (UACC-62 melanoma) was 4.71 µM, the GI50 (UO-31 renal) was 1.71 µM and the TGI (UO-31 renal) was 4.04 µM. For the same compound, the GI50 (MCF7 breast) was 2.27 µM, the TGI (MCF7 breast) was 6.21 µM and the GI50 (RXF 393 renal) was 1.83 µM. It also gave a TGI (RXF 393 renal) of 3.64 µM, a GI50 (A549 NSCLC) of 14.5 µM and a TGI (A549 NSCLC) of 31.9 µM. For the same compound, the GI50 (SF-539 CNS) was 2.42 µM, the TGI (SF-539 CNS) was 6.57 µM and the GI50 (A498 renal) was 15 µM. For the same compound, the TGI (A498 renal) was 28.5 µM, the GI50 (HL-60(TB) leukemia) was 2.11 µM and the TGI (HL-60(TB) leukemia) was 4.95 µM. The GI50 (SNB-19 CNS) was 11.5 µM, the TGI (SNB-19 CNS) was 25.2 µM and the GI50 (OVCAR-8 ovarian) was 4.1 µM. It also gave a TGI (OVCAR-8 ovarian) of 23.8 µM, a GI50 (SW-620 colon) of 2.77 µM and a TGI (SW-620 colon) of 8.06 µM. For the same compound, the GI50 (MALME-3M melanoma) was 2 µM, the TGI (MALME-3M melanoma) was 4.29 µM and the GI50 (LOX IMVI melanoma) was 1.76 µM. It also gave a TGI (LOX IMVI melanoma) of 3.31 µM, a GI50 (IGROV1 ovarian) of 1.83 µM and a TGI (IGROV1 ovarian) of 3.76 µM. The GI50 (ACHN renal) was 2.02 µM, the TGI (ACHN renal) was 4.28 µM and the GI50 (U251 CNS) was 12.7 µM. The TGI (U251 CNS) was 25.4 µM, the GI50 (OVCAR-4 ovarian) was 3.89 µM and the TGI (OVCAR-4 ovarian) was 18.9 µM. It also gave a GI50 (EKVX NSCLC) of 12.5 µM, a TGI (EKVX NSCLC) of 25.2 µM and a GI50 (OVCAR-3 ovarian) of 1.93 µM. The TGI (OVCAR-3 ovarian) was 3.85 µM, the GI50 (RPMI-8226 leukemia) was 2.36 µM and the TGI (RPMI-8226 leukemia) was 6.69 µM. For the same compound, the GI50 (SNB-75 CNS) was 15.4 µM, the TGI (SNB-75 CNS) was 32.8 µM and the GI50 (CCRF-CEM leukemia) was 1.06 µM. For the same compound, the TGI (CCRF-CEM leukemia) was 3.29 µM, the GI50 (MDA-MB-435) was 3.81 µM and the TGI (MDA-MB-435) was 13.8 µM. The GI50 (NCI-H460 lung) was 7.66 µM, the TGI (NCI-H460 lung) was 21.8 µM and the GI50 (COLO 205 colon) was 3.92 µM. It also gave a TGI (COLO 205 colon) of 17.2 µM, a GI50 (PC-3 prostate) of 1.65 µM and a TGI (PC-3 prostate) of 3.72 µM. The GI50 (SK-MEL-5 melanoma) was 4.55 µM, the TGI (SK-MEL-5 melanoma) was 15.8 µM and the GI50 (SK-OV-3 ovarian) was 12.6 µM. For the same compound, the TGI (SK-OV-3 ovarian) was 26.1 µM, the GI50 (NCI/ADR-RES ovarian) was 4.89 µM and the TGI (NCI/ADR-RES ovarian) was 31.2 µM.
